Data as given in paper PMC9221509, “Discovery of a Novel Antimicrobial Peptide, Temporin-PKE, from the Skin Secretion of Pelophylax kl. esculentus, and Evaluation of Its Structure-Activity Relationships” (Biomolecules, 2022).
Values after ≈ are worked out from the molar mass of the structure shown. Like-named read-outs stand apart in the source and are kept apart here. Non-standard residues stand in square brackets, D forms with d. Residues, ends and D or L forms follow the SMILES beside them. No end group written: not given here.

Columns and labels:
[1] = system: P. aeruginosa (ATCC CRM 9027) biofilm; format: cell-based, Pseudomonas aeruginosa; conditions: ATCC CRM 9027, 24 h
Experimental: (§1) The anti-biofilm activities of the peptides against S. aureus (ATCC 6538), MRSA (NCTC 12493), E. faecalis (NCTC 12697), E. coli (ATCC CRM 8739), K. pneumoniae (ATCC 43816), and P. aeruginosa (ATCC CRM 9027), were evaluated. For the MBIC assay, 99 µL of bacterial suspension (5 × 10^5 CFU/mL) was mixed with 1 µL of serial dilutions (from 100 µM to 51,200 µM) of temporin-PKE and its analogues in a 96-well plate, and the plate was incubated in a moist shaking incubator at a speed of 200 rpm at 37 °C for 24 h. For the MBEC assay, 100 µL of bacterial suspension (5 × 10^5 CFU/mL) in each well was seeded in a new 96-well plate, and the plate was put into the same shaking incubator for 24 h incubation to allow biofilm formation on the well. After biofilm formation, the biofilm in the plate was washed with PBS twice. The PBS was aspirated between washes to remove planktonic bacterial cells. The washed biofilm in each well was treated with 100 µL of serial dilutions (from 1 µM to 512 µM) of the test peptides. Then, the plate was incubated in the same shaking incubator for another 24 h. After being washed by PBS twice and fixed with methanol, the biofilm in each well was incubated with 100 µL of 0.1% crystal violet for 30 min, and the stained biofilm was dissolved in 100 µL of glacial acidic acid after drying. The solutions were transferred to a new microplate, and the absorbance of each well was measured using a microplate reader (EL808, Biolise BioTek, Winooski, VT, USA) set to 595 nm wavelength. The MBIC was the minimum concentration of the peptide showing no biofilm formation. The MBEC is the lowest concentration of the peptide capable of eradicating the mature biofilms, which had no biofilm in the well.

[2] = system: K. pneumoniae (ATCC 43816); format: cell-based, Klebsiella pneumoniae; conditions: ATCC 43816, 24 h
Experimental: (§2) The antimicrobial activities of peptides were evaluated against the Gram-positive bacteria, S. aureus (ATCC 6538), methicillin-resistant Staphylococcus aureus (MRSA) (NCTC 12493), Enterococcus faecalis (E. faecalis) (NCTC 12697); the Gram-negative bacteria, E. coli (ATCC CRM 8739), Klebsiella pneumoniae (K. pneumoniae) (ATCC 43816), Pseudomonas aeruginosa (P. aeruginosa) (ATCC CRM 9027); and the yeast, Candida albicans (C. albicans) (ATCC CRM 10231). Clinical isolates of MRSA (B042 V2E1 A), E. coli (ATCC BAA-2340), K. pneumoniae (ATCC BAA-1705), and P. aeruginosa (B004 V2S2 B) were also used to determine their antimicrobial activities. The suspension of microorganisms in the logarithmic growth phase with a specific final density (Gram-negative and Gram-positive bacteria: 5 × 10^5 CFU/mL; yeast: 1 × 10^6 CFU/mL) was incubated with different peptide concentrations from 1 µM to 512 µM at 37 °C for 24 h. PBS was used as the negative control, and norfloxacin and amphotericin B were selected as the positive control for bacteria and yeast, respectively. Since the Norfloxacin had weak activities against P. aeruginosa (B004 V2S2 B) and K. pneumoniae (ATCC BAA 1705), gentamicin was used as the positive control for these two bacterial strains. The absorbance of each well was obtained using a microplate reader (EL808, Biolise BioTek, Winooski, VT, USA) set at 550 nm wavelength. The MIC value was the lowest concentration of a peptide that inhibits visible bacterial growth. Once the MIC values were determined, an aliquot from the bacterial culture exposed to the peptide at or above its MIC value was inoculated on a Mueller Hinton agar (MHA) and was incubated at 37 for 18 h. The MBC value was the lowest concentration of a peptide that kills 99.9% of bacteria.
According to the procedures in a previous article, the analysis of the sensitivity of the peptides was determined by measuring MIC values in the presence of different types of salts and 10% fetal bovine serum. MRSA (NCTC 12493) and K. pneumoniae (ATCC 43816) were selected as the subjects of these assays. Various salts at different concentrations, including 150 mM NaCl, 4.5 mM KCl, 6 μM NH4Cl, 1 mM MgCl2, […], […], and 10% serum (Gibco, Auckland, New Zealand), were added to the MHB medium for the examination of the MIC values which were determined as described in Section 2.7.

[3] = system: P. aeruginosa (ATCC CRM 9027); assay: microbe, parasite or virus in culture; format: cell-based, Pseudomonas aeruginosa; conditions: for MBC: ATCC CRM 9027, 18 h; for MIC: ATCC CRM 9027, 24 h
Experimental: as §2

[4] = system: P. aeruginosa (B004 V2S2 B); assay: microbe, parasite or virus in culture; format: cell-based, Pseudomonas aeruginosa; conditions: B004 V2S2 B; for MBC: 18 h; for MIC: 24 h
Experimental: as §2

[5] = system: S. aureus (ATCC 6538); assay: microbe, parasite or virus in culture; format: cell-based, Staphylococcus aureus; conditions: for MBC: ATCC 6538, 18 h; for MIC: ATCC 6538, 24 h
Experimental: as §2

[6] = system: K. pneumoniae (ATCC 43816); assay: microbe, parasite or virus in culture; format: cell-based, Klebsiella pneumoniae; conditions: for MBC: ATCC 43816, 18 h; for MIC: ATCC 43816, 24 h
Experimental: as §2

[7] = system: K. pneumoniae (ATCC BAA-1705); assay: microbe, parasite or virus in culture; format: cell-based, Klebsiella pneumoniae; conditions: for MBC: ATCC BAA-1705, 18 h; for MIC: ATCC BAA-1705, 24 h
Experimental: as §2

[8] = system: C. albicans (ATCC CRM 10231); assay: organism not typed; format: cell-based, Candida albicans; conditions: for MBC: ATCC CRM 10231, 18 h; for MIC: ATCC CRM 10231, 24 h
Experimental: as §2

[9] = system: E. faecalis (NCTC 12697) biofilm; format: cell-based, Enterococcus faecalis; conditions: NCTC 12697, 24 h
Experimental: as §1

[10] = system: MRSA (NCTC 12493); assay: microbe, parasite or virus in culture; format: cell-based, methicillin-resistant Staphylococcus aureus; conditions: for MBC: NCTC 12493, 18 h; for MIC: NCTC 12493, 24 h
Experimental: as §2

[11] = system: MRSA (B042 V2E1 A); assay: microbe, parasite or virus in culture; format: cell-based, methicillin-resistant Staphylococcus aureus; conditions: B042 V2E1 A; for MBC: 18 h; for MIC: 24 h
Experimental: as §2

Compound | MBIC [1] | MIC against K. pneumoniae in the presence of 4 µM FeCl3 [2] | MIC against K. pneumoniae in the presence of 6 µM NH4Cl [2] | MIC against K. pneumoniae in the presence of 8 µM ZnCl2 [2] | MIC against K. pneumoniae in the presence of 1 mM MgCl2 [2] | MIC against K. pneumoniae in the presence of 2 mM CaCl2 [2] | MIC against K. pneumoniae in the presence of 4.5 mM KCl [2] | MIC against K. pneumoniae in the presence of 150 mM NaCl [2] | MIC against K. pneumoniae in the presence of 10% FBS [2] | MIC against K. pneumoniae, Negative [2] | MBC ([3]; read-out: MBC) | MIC ([3]; read-out: MIC) | MBC [5] | MIC [5] | MBC ([6]; read-out: MBC) | MIC ([6]; read-out: MIC) | MBC ([8]; read-out: MBC) | MIC ([8]; read-out: MIC) | MBIC [9] | MBC [10] | other results
FLPLIIGKLSSLLPKIF-NH2 [Temporin-PKE-2K] | >512 µM | 16 µM | 16 µM | 16 µM | 32 µM | 32 µM | 16 µM | 128 µM | 64 µM | 16 µM | 256 µM | 128 µM | 2 µM | 2 µM | 32 µM | 16 µM | >512 µM | >512 µM | 16 µM | 2 µM | MBC [4]: 32 µM; MIC [4]: 32 µM; MBC [7]: 16 µM; MIC [7]: 16 µM; MIC [10]: 2 µM; MBC [11]: 2 µM; MIC [11]: 2 µM
CC[C@@H](C)[C@@H](NC(=O)[C@H](CCCCN)NC(=O)[C@@H]1CCCN1C(=O)[C@H](CC(C)C)NC(=O)[C@H](CC(C)C)NC(=O)[C@H](CO)NC(=O)[C@H](CO)NC(=O)[C@H](CC(C)C)NC(=O)[C@H](C)NC(=O)CNC(=O)[C@@H](NC(=O)[C@@H](NC(=O)[C@H](CC(C)C)NC(=O)[C@@H]1CCCN1C(=O)[C@H](CC(C)C)NC(=O)[C@@H](N)Cc1ccccc1)[C@@H](C)CC)[C@@H](C)CC)C(=O)N[C@@H](Cc1ccccc1)C(N)=O [Temporin-PKE-i] (H-FLPLIIGALSSLLPK[dI]F-NH2) | >512 µM | >512 µM | >512 µM | >512 µM | >512 µM | >512 µM | >512 µM | >512 µM | >512 µM | >512 µM | >512 µM | >512 µM | 2 µM (≈ 3.68 µg/mL) | 2 µM (≈ 3.68 µg/mL) | >512 µM | >512 µM | >512 µM | >512 µM | 4 µM | 4 µM (≈ 7.37 µg/mL) | MBC ([4]; read-out: MBC): >512 µM; MIC ([4]; read-out: MIC): >512 µM; MBC ([7]; read-out: MBC): >512 µM; MIC ([7]; read-out: MIC): >512 µM; MIC [10]: 4 µM (≈ 7.37 µg/mL); MBC [11]: 4 µM (≈ 7.37 µg/mL); MIC [11]: 4 µM (≈ 7.37 µg/mL)
FLPLIIGALSSLLPKIF-NH2 [Temporin-PKE] | >512 µM | >512 µM | >512 µM | >512 µM | >512 µM | >512 µM | >512 µM | >512 µM | >512 µM | >512 µM | >512 µM | >512 µM | 2 µM | 2 µM | >512 µM | >512 µM | >512 µM | >512 µM | 32 µM | 2/2 μM | MBC ([4]; read-out: MBC): >512 µM; MIC ([4]; read-out: MIC): >512 µM; MBC ([7]; read-out: MBC): >512 µM; MIC ([7]; read-out: MIC): >512 µM; MIC ([10]; read-out: MIC): 2 µM; MBC ([11]; read-out: MBC): 8 µM; MIC ([11]; read-out: MIC): 4 µM
FLPKIIGKLSSKLPKIF-NH2 [Temporin-PKE-4K] | 128 µM | 16 µM | 16 µM | 16 µM | 64 µM | 128 µM | 16 µM | 64 µM | 64 µM | 16 µM | – | – | 32 µM | 32 µM | – | – | – | – | 256 µM | 32 µM | MBC [3]: 64 µM; MIC [3]: 64 µM; MBC [4]: 32 µM; MIC [4]: 32 µM; MBC [6]: 16 µM; MIC [6]: 16 µM; MBC [7]: 32 µM; MIC [7]: 32 µM; MBC [8]: 64 µM; MIC [8]: 64 µM; MIC [10]: 32 µM; MBC [11]: 16 µM; MIC [11]: 16 µM
